Experimental data published in patent publication US20130184227A1, “Cytochrome P450 2C9 Inhibitors” (priority 2004, published 2013).
Read-outs that look alike come from different tables or passages of the source.

Assays:
CYP2C9 [1] = test: in vitro; conditions: Sprague-Dawley, rat, microsomes
CYP2C9 [2] = conditions: tolbutamide 1 mM, rat liver microsomes
[3] = pH 7.4, % inhibition of CYP2C9 activity
[4] = pH 7.4, % inhibition of CYP2C9 activity, test article 1 μM, tolbutamide 1 mM, rat liver microsomes
[5] = pH 7.4, % inhibition of CYP2C9 activity, test article 10 μM, tolbutamide 1 mM, rat liver microsomes
[6] = pH 7.4, % inhibition of CYP2C9 activity, test article 100 μM, tolbutamide 1 mM, rat liver microsomes

SMILES	inhibition at 7.5 min, 1 μM (CYP2C9 [1]; [3]) [%]	inhibition at 7.5 min, 10 μM (CYP2C9 [1]; [3]) [%]	inhibition at 7.5 min, 100 μM (CYP2C9 [1]; [3]) [%]	also measured
C=C(C)C1CC=C(C)CC1 (single isomer, unassigned; (+)) [(+)-Limonene]				% inhibition of CYP2C9 activity (CYP2C9 [2]; test article 1 μM): 14.12%; % inhibition of CYP2C9 activity (CYP2C9 [2]; test article 10 μM): 10.55%; % inhibition of CYP2C9 activity (CYP2C9 [2]; test article 100 μM): 22.29%
O=c1cc(-c2ccc(O)c(O)c2)oc2cc(O)cc(O)c12 [luteolin]	20.1	37.9	93.2	
C[C@@]12C[C@@]3(O)O[C@@H](O1)[C@]1(COC(=O)c4ccccc4)[C@H]3C[C@@]12O[C@@H]1O[C@H](CO)[C@@H](O)[C@H](O)[C@H]1O [paeoniflorin]	10.1	0.7	-1.77	
O=C(CCc1ccc(O)cc1)c1c(O)cc(O)cc1O [Phloretin]	23.8	34.4	95.1	
O=c1c(-c2ccc(O)cc2)coc2c([C@@H]3O[C@H](CO)[C@@H](O)[C@H](O)[C@H]3O)c(O)ccc12 [Puerarin]	38.1	39	33.3	
O=c1cc(-c2ccc(O)cc2)oc2cc(O)cc(O)c12 [apigenin]				inhibition at 7.5 min, 2.5 μM (CYP2C9 [1]; [3]): 21.7%; inhibition at 7.5 min, 25 μM (CYP2C9 [1]; [3]): 76.9%
COc1cc(-c2oc3cc(O)cc(O)c3c(=O)c2O)ccc1O [Isorhamnetin]				inhibition at 7.5 min, 1 μM (CYP2C9 [1]; pH 7.4): 19.6%; inhibition at 7.5 min, 10 μM (CYP2C9 [1]; pH 7.4): 61.5%; inhibition at 7.5 min, 75 μM (CYP2C9 [1]; pH 7.4): 65.7%
CCCCCCCCCCCC1=C(O)C(=O)C=C(O)C1=O [Embelin]	24.7	11.2		inhibition at 7.5 min, 50 μM (CYP2C9 [1]; [3]): 18%
O=c1cc(-c2ccccc2)oc2ccc3ccccc3c12 [β-Naphthoflavone]				% inhibition of CYP2C9 activity (CYP2C9 [2]; test article 1 μM): 2.35%; % inhibition of CYP2C9 activity (CYP2C9 [2]; test article 10 μM): 4.64%
O=c1c(O)c(-c2ccc(O)c(O)c2)oc2cc(O)cc(O)c12 [quercetin]				inhibition at 7.5 min, 1 μM (CYP2C9 [1]; pH 7.4): 15.1%; inhibition at 7.5 min, 10 μM (CYP2C9 [1]; pH 7.4): 44.8%; inhibition at 7.5 min, 100 μM (CYP2C9 [1]; pH 7.4): 91.9%
O=C1c2c(O)cc(O)cc2O[C@H](c2ccc(O)c(O)c2)[C@H]1O [(+)-Taxifolin]				inhibition at 7.5 min, 1 μM (CYP2C9 [1]; [4]): -1.29%; inhibition at 7.5 min, 10 μM (CYP2C9 [1]; [5]): 31.2%; inhibition at 7.5 min, 100 μM (CYP2C9 [1]; [6]): 50.5%
CC1(C)CC[C@]2(C(=O)O)CC[C@]3(C)C(=CC[C@@H]4[C@@]5(C)CC[C@H](O)C(C)(C)[C@@H]5CC[C@]43C)[C@@H]2C1 [Oleanolic acid]				inhibition at 7.5 min, 1 μM (CYP2C9 [1]; [4]): 16.8%; inhibition at 7.5 min, 10 μM (CYP2C9 [1]; [5]): 42.4%; inhibition at 7.5 min, 100 μM (CYP2C9 [1]; [6]): 41.1%
O=c1cc(-c2ccc(O)c(O)c2)oc2cc(O)c([C@@H]3O[C@H](CO)[C@@H](O)[C@H](O)[C@H]3O)c(O)c12 [Homoorientin]				% inhibition of CYP2C9 activity (CYP2C9 [2]; test article 1 μM): 3.37%; % inhibition of CYP2C9 activity (CYP2C9 [2]; test article 10 μM): 2.45%; % inhibition of CYP2C9 activity (CYP2C9 [2]; test article 100 μM): 20.19%
O=c1c(-c2ccc(O)cc2)coc2cc(O[C@@H]3O[C@H](CO)[C@@H](O)[C@H](O)[C@H]3O)ccc12 [Daidzin]				inhibition at 7.5 min, 1 μM (CYP2C9 [1]; pH 7.4): 0.95%; inhibition at 7.5 min, 10 μM (CYP2C9 [1]; pH 7.4): -2.46%; inhibition at 7.5 min, 25 μM (CYP2C9 [1]; pH 7.4): -1.16%; inhibition at 7.5 min, 100 μM (CYP2C9 [1]; pH 7.4): -1.33%
O=C(O)c1cc(O)c(O)c(O)c1 [gallic acid]	-3.05	-2.47	-0.97	
CC(C)[C@@H](C)/C=C/[C@@H](C)[C@H]1CC[C@H]2C3=CC=C4C[C@@H](O)CC[C@]4(C)[C@H]3CC[C@]12C [ergosterol]	1	8.12		inhibition at 7.5 min, 30 μM (CYP2C9 [1]; [3]): 3.57%
COc1ccc([C@@H]2CC(=O)c3c(O)cc(O[C@@H]4O[C@H](CO)[C@@H](O)[C@H](O)[C@H]4O[C@@H]4O[C@@H](C)[C@H](O)[C@@H](O)[C@H]4O)cc3O2)cc1 [Poncirin]	7.76	16.3	15	
COc1ccc([C@@H]2CC(=O)c3c(O)cc(O)cc3O2)cc1O [Hesperetin]	-3.58	29.1		
O=c1c(-c2ccc(O)cc2)coc2cc(O)cc(O)c12 [Genistein]				inhibition at 7.5 min, 1 μM (CYP2C9 [1]; [4]): 49.6%; inhibition at 7.5 min, 10 μM (CYP2C9 [1]; [5]): 67.7%; inhibition at 7.5 min, 100 μM (CYP2C9 [1]; [6]): 82.7%; inhibition at 7.5 min, 1 μM (CYP2C9 [1]; pH 7.4, % inhibition of tolbutamide metabolism in microsomes, 1 μM, reaction time 7.5 minute, n = 3): 49.6%; inhibition at 7.5 min, 100 μM (CYP2C9 [1]; pH 7.4, % inhibition of tolbutamide metabolism in microsomes, 100 μM, reaction time 7.5 minute, n = 3): 82.7%; inhibition at 7.5 min, 10 μM (CYP2C9 [1]; pH 7.4, % inhibition of tolbutamide metabolism in microsomes, 10 Mm, reaction time 7.5 minute, n = 3): 67.7%; inhibition at 7.5 min, 1 μM (CYP2C9 [1]; pH 7.4, % inhibition, 1 μM (low concentration)): 49.6%; inhibition at 7.5 min, 10 μM (CYP2C9 [1]; pH 7.4, % inhibition, 10 μM (mid concentration)): 67.7%; inhibition at 7.5 min, 100 μM (CYP2C9 [1]; pH 7.4, % inhibition, 100 μM (high concentration)): 82.7%
O=C(O)[C@H]1O[C@@H](Oc2cc3oc(-c4ccccc4)cc(=O)c3c(O)c2O)[C@H](O)[C@@H](O)[C@@H]1O [baicalin]				inhibition at 7.5 min, 2.5 μM (CYP2C9 [1]; [3]): -5.36%; inhibition at 7.5 min, 25 μM (CYP2C9 [1]; [3]): 7.77%
O=c1cc(-c2ccccc2)oc2cc(O)cc(O)c12 [Chrysin]				inhibition at 7.5 min, 1 μM (CYP2C9 [1]; pH 7.4): 6.86%; inhibition at 7.5 min, 10 μM (CYP2C9 [1]; pH 7.4): 60.6%; inhibition at 7.5 min, 50 μM (CYP2C9 [1]; pH 7.4): 75.1%
C[C@@H]1O[C@@H](Oc2c(-c3ccc(O)c(O)c3)oc3cc(O)cc(O)c3c2=O)[C@H](O)[C@H](O)[C@H]1O [Quercitrin]				inhibition at 7.5 min, 1 μM (CYP2C9 [1]; pH 7.4): 24.2%; inhibition at 7.5 min, 10 μM (CYP2C9 [1]; pH 7.4): 21.1%; inhibition at 7.5 min, 100 μM (CYP2C9 [1]; pH 7.4): 13.5%
O=c1cc(-c2ccccc2)oc2cc(O)c(O)c(O)c12 [Baicalein]				inhibition at 7.5 min, 2.5 μM (CYP2C9 [1]; [3]): 1.76%; inhibition at 7.5 min, 25 μM (CYP2C9 [1]; [3]): 5.06%

Now from value to molecule, other results behind:

inhibition at 7.5 min, 1 μM (CYP2C9 [1]; [3]) [%]	inhibition at 7.5 min, 10 μM (CYP2C9 [1]; [3]) [%]	inhibition at 7.5 min, 100 μM (CYP2C9 [1]; [3]) [%]	SMILES	also measured
5.14	2.23	4.87	CC1(C)[C@@H](O[C@H]2O[C@H](C(=O)O)[C@@H](O)[C@H](O)[C@H]2O[C@@H]2O[C@H](C(=O)O)[C@@H](O)[C@H](O)[C@H]2O)CC[C@]2(C)[C@H]3C(=O)C=C4[C@@H]5C[C@@](C)(C(=O)O)CC[C@]5(C)CC[C@@]4(C)[C@]3(C)CC[C@@H]12 [glycyrrhizin]	
24.1	16.6	29.9	C=CC(=C)CCC=C(C)C [β-Myrcene]	
16.3	16.6	18.4	C=C[C@H]1[C@H](O[C@@H]2O[C@H](CO)[C@@H](O)[C@H](O)[C@H]2O)OC=C2C(=O)OCC[C@]21O [Swertiamarin]	
30.9	37.4		COc1cc(O)c2c(=O)cc(-c3ccc(O)cc3)oc2c1 [Genkwanin]	
1.51	4.7		COc1ccc(-c2cc(=O)c3c(O)cc(O[C@@H]4O[C@H](CO[C@@H]5O[C@@H](C)[C@H](O)[C@@H](O)[C@H]5O)[C@@H](O)[C@H](O)[C@H]4O)cc3o2)cc1O [Diosmin]	
-3.19	10.6	88.8	O=c1c(O)c(-c2cc(O)c(O)c(O)c2)oc2cc(O)cc(O)c12 [myricetin]	
20.3	16.2		O=C(O)c1ccc(O)c(O)c1 [protocatechuic acid]	
20.9	27	61.8	O=c1c(O[C@@H]2O[C@H](CO)[C@@H](O)[C@H](O)[C@H]2O)c(-c2ccc(O)c(O)c2)oc2cc(O)cc(O)c12 [isoquercitrin]	
-16.1	9.76	81.2	CC(Cc1ccc(O)c(O)c1)C(C)Cc1ccc(O)c(O)c1 (stereo not drawn) [Nordihydroguaiaretic acid]	
35.6	37.4	45.4	O=c1cc(-c2ccc(O)cc2)oc2cc(O)c([C@@H]3O[C@H](CO)[C@@H](O)[C@H](O)[C@H]3O)c(O)c12 [isovitexin]	
23.3	30.6		COc1ccc(-c2coc3cc(O)ccc3c2=O)cc1 [Formononetin]	inhibition at 7.5 min, 50 μM (CYP2C9 [1]; [3]): 57.9%
26.9	15.8	26.1	O=C(O)/C=C/c1ccccc1 [trans-cinnamic acid]	
14.3	11.6	51	O=c1c(O)c(-c2ccc(O)cc2O)oc2cc(O)cc(O)c12 [Morin]	
32.8	28.6	69.6	O=C1C[C@@H](c2ccc(O)c(O)c2)Oc2cc(O)cc(O)c21 [eriodictyol]	
1.35	13.4		O=c1c(-c2ccc(O)cc2)coc2cc(O)ccc12 [Daidzein]	inhibition at 7.5 min, 25 μM (CYP2C9 [1]; [3]): 15.7%
-7.17	-6.64	-2.02	O=c1ccc2ccc(O)cc2o1 [Umbelliferone]	
-22.3	38.3		O=c1c(O)c(-c2ccc(O)cc2)oc2cc(O)cc(O)c12 [kaempferol]	
-2.59	-14	-6.46	C[C@@H]1O[C@@H](OC[C@H]2O[C@@H](Oc3c(-c4ccc(O)c(O)c4)oc4cc(O)cc(O)c4c3=O)[C@H](O)[C@@H](O)[C@@H]2O)[C@H](O)[C@H](O)[C@H]1O [Rutin]	
18.1	18.4	24.8	O=C1C[C@@H](c2ccc(O[C@@H]3O[C@H](CO)[C@@H](O)[C@H](O)[C@H]3O)cc2)Oc2cc(O)ccc21 [Liquiritin]	
36.6		42.6	CC(=O)OCCCc1ccccc1 [3-Phenylpropyl Acetate]	
